Data taken from patent US4564684A, “3-Amino-1-phenyl-2-pyrazolines” (priority 1980, dated 1986).
Counter-ions that a name gives are not always drawn.

Experiments:
[1] = molecular target: cyclo-oxygenase; experiment: Inhibition of cyclo-oxygenase in an enzyme assay according to the method of Blackwell and Flower; assay type: biochemical; settings: Table I, read-out: ED50 for inhibition of cyclo-oxygenase
[2] = molecular target: lipoxygenase; experiment: Inhibition of lipoxygenase in an enzyme assay according to the method of Blackwell and Flower; assay type: biochemical; settings: Table I, read-out: ED50 for inhibition of lipoxygenase

| Compound | IC50 [1] [µM] | IC50 [2] [µM] |
| --- | --- | --- |
| CNC1=NN(c2cccc(C(F)(F)F)c2)CC1 [Example 1, 3-methylamino-1-(3-trifluoromethylphenyl)-2-pyrazoline] | ~0.3 | ~0.3 |
| CCNC1=NN(c2cccc(C(F)(F)F)c2)CC1 [Example 2, 3-ethylamino-1-(3-trifluoromethylphenyl)-2-pyrazoline] | ~0.8 | ~0.7 |
| FC(F)(F)c1cccc(N2CCC(NCc3ccccc3)=N2)c1 [Example 5, 3-benzylamino-1-(3-trifluoromethylphenyl)-2-pyrazoline hydrochloride] | ~0.3 | ~0.3 |

Next, values leading:

| IC50 [1] [µM] | IC50 [2] [µM] | Compound |
| --- | --- | --- |
| < 0.3 | < 0.3 | CCCNC1=NN(c2cccc(C(F)(F)F)c2)CC1 [Example 3, 3-propylamino-1-(3-trifluoromethylphenyl)-2-pyrazoline] |
| < 0.3 | < 0.3 | CCCCNC1=NN(c2cccc(C(F)(F)F)c2)CC1 [Example 4, 3-butylamino-1-(3-trifluoromethylphenyl)-2-pyrazoline] |
